Laboratory results taken from patent US20250214991A1 (Oncopia Therapeutics, Inc. d/b/a/ SK Life Science Labs, priority 2022, published 2025).

Tests used:
CRBN/DDB1 = CRBN/DDB1 (Homo sapiens (Human), UniProt Q96SW2); assay: IC50 measurements for binding to CRBN/DDB1 (HTRF); details: His tagged CRBN+DDB, Cy5-labeled Thalidomide probe, one hour
In short: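 Serially diluted compounds compete with a Cy5-labeled thalidomide tracer (60 nM) for His-tagged CRBN-DDB1 (2 nM), detected via anti-6His Tb cryptate (0.4 nM); buffer HEPES pH 7.5 with TCEP, Brij-35, NaCl, BSA. One-hour room-temperature incubation, HTRF signal read, IC50 by four-parameter curve.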

IKZF1 = IKZF1 (Homo sapiens (Human), UniProt Q13422+Q96SW2); assay: In vitro IKZF1 HiBit Assay (HEK293T Flp-in-HiBiT-IKZF1 stable cell line); type: cell-based; details: HEK293T Flp-in-HiBiT-IKZF1 stable cell line, 6 hrs incubation; for DC50: read-out: IKZF1 HiBit DC50; for Dmax: HEK-293T, read-out: IKZF1 HiBit Dmax (%)
In short: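 Degradation was measured as loss of luminescence from the HiBiT-IKZF1 tag after 6 h compound treatment, with 0.1% final DMSO, in stable HEK293T Flp-in cells. Values were normalized to DMSO, giving the 50% degradation concentration and the maximal degradation range.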

IKZF2 = IKZF2 (Homo sapiens (Human), UniProt Q96SW2+Q9UKS7); assay: In vitro IKZF2 HiBit Assay (HEK293T Flp-in-HiBiT cells); type: cell-based; details: HEK293T Flp-in-HiBiT cells, 6 hrs incubation; for DC50: read-out: IKZF2 HiBit DC50; for Dmax: HEK-293T, read-out: IKZF2 HiBit Dmax (%)
In short: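 Remaining tagged Helios was read as lytic HiBiT/LgBiT luminescence normalized to DMSO, yielding binned DC50 and Dmax values. Treatment ran 6 h, with compounds at 11 three-fold doses diluted from 1 mM and 0.1% final DMSO. The cells were HEK293T Flp-in with CRISPR knock-in of HiBiT at the IKZF2 N-terminus.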

Sequence of IKZF1 (Q13422 whole entry): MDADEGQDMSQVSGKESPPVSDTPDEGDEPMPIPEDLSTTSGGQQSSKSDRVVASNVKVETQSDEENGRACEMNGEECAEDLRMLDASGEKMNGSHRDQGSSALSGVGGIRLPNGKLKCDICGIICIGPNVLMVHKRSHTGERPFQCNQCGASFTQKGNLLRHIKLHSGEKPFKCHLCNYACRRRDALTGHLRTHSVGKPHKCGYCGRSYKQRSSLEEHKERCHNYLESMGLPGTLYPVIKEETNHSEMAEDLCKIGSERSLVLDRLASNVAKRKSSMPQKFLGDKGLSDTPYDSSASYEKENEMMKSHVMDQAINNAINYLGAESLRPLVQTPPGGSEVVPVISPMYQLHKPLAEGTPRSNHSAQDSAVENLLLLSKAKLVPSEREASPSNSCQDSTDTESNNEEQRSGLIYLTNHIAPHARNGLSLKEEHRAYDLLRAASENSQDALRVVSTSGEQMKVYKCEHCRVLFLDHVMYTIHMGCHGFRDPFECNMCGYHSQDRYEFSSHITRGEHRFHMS
Sequence of IKZF1 (Q96SW2 whole entry): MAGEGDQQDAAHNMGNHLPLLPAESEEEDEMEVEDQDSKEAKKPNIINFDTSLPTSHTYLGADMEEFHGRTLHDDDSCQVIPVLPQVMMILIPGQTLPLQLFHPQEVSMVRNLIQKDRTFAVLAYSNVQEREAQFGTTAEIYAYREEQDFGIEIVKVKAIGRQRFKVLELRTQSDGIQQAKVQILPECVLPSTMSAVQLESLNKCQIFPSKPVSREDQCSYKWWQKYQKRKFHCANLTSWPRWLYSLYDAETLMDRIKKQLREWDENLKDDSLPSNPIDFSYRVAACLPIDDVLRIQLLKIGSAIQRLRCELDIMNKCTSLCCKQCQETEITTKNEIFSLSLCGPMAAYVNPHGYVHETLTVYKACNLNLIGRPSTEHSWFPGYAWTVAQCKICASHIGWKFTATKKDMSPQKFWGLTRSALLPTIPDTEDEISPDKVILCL
Sequence of IKZF1 (Q16531 2-1140 partner): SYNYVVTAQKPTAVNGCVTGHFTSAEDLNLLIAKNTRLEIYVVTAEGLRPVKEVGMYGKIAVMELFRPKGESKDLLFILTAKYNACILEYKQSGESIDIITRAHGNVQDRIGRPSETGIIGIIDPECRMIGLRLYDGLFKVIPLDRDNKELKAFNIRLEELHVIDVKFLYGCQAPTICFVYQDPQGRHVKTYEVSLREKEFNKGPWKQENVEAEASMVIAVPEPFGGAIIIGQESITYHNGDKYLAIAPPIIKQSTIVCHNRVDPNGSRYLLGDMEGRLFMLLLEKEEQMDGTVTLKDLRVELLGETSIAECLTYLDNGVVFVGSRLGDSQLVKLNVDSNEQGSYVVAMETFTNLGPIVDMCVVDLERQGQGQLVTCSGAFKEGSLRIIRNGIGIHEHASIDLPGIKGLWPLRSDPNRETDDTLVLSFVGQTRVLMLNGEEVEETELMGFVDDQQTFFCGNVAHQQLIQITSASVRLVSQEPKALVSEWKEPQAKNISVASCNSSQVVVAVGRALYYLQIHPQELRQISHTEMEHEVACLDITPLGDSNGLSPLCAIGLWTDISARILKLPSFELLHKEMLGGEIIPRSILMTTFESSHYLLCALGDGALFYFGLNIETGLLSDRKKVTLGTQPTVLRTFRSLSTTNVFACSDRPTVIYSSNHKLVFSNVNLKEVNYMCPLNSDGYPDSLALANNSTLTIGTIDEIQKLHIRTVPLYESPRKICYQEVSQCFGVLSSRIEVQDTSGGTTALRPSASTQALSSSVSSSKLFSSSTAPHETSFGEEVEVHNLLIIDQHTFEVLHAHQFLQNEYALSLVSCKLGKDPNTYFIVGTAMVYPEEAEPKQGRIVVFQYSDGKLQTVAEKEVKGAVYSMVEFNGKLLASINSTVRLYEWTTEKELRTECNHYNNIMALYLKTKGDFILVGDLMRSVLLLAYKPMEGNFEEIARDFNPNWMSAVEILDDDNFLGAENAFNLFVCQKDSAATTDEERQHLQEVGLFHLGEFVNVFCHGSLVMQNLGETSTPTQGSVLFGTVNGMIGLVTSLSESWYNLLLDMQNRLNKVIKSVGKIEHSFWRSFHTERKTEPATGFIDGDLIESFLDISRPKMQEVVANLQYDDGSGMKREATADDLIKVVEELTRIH
Sequence of IKZF2 (Q9UKS7 whole entry): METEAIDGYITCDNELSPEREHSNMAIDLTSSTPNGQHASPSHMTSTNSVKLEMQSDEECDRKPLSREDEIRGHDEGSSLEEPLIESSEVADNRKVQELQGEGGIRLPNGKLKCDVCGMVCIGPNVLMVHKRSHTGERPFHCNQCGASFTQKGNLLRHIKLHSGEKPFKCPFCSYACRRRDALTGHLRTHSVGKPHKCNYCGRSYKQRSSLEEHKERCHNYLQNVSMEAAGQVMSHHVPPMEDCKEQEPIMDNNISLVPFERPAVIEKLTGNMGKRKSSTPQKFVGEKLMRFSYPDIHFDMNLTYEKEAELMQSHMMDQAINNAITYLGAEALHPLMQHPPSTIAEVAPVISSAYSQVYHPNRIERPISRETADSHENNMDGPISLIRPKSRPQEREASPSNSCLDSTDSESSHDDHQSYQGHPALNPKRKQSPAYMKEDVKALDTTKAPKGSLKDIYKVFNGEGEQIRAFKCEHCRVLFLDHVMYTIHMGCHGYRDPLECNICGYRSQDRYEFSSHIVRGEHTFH
Sequence of IKZF2 (Q96SW2 whole entry): as the sequence (Q96SW2 whole entry) above
Sequence of IKZF2 (Q16531 2-1140 partner): as the sequence (Q16531 2-1140 partner) above
Sequence of CRBN/DDB1 (Q96SW2 whole entry, species assumed): as the sequence (Q96SW2 whole entry) above
Sequence of CRBN/DDB1 (Q16531 whole entry partner, species assumed): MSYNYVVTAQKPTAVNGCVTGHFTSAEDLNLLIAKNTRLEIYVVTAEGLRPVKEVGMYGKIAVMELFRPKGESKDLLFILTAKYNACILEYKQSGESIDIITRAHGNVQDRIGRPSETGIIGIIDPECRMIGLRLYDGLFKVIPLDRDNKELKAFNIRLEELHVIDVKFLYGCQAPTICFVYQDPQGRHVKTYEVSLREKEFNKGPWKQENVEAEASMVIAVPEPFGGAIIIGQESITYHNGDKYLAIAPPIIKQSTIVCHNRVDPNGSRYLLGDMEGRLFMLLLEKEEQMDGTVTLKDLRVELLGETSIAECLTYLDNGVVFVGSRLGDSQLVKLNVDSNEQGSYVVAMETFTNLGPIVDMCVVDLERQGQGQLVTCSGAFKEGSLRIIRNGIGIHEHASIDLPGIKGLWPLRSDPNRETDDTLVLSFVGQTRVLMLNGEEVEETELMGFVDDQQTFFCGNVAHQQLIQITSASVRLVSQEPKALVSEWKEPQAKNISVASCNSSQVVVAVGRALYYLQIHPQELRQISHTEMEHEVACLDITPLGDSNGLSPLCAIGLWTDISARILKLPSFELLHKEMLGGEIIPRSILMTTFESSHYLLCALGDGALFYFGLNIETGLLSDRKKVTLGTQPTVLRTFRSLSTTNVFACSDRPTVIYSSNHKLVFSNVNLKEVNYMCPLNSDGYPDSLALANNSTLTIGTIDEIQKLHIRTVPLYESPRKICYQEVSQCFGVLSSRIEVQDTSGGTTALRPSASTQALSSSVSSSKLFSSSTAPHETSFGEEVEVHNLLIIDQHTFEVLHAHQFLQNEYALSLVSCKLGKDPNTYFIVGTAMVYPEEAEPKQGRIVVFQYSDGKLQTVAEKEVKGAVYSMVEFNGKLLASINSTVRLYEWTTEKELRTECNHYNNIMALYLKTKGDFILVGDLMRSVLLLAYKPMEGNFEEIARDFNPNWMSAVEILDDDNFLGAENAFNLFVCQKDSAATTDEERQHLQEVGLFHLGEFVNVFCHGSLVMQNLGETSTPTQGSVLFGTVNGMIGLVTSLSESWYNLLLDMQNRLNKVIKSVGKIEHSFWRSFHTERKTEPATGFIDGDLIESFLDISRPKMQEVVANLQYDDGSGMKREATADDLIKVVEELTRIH

Compound	IC50 (CRBN/DDB1) [nM]	DC50 (IKZF1) [µM]	Dmax (IKZF1) [%]	DC50 (IKZF2) [nM]	Dmax (IKZF2) [%]
O=C1CCC(N2Cc3cc(-c4cc(CN5CCCC5)c5ncn(C6CS(=O)(=O)C6)c5n4)ccc3C2=O)C(=O)N1 (centres unmarked) [Example 225, 3-(5-(3-(1,1-dioxidothietan-3-yl)-7-(pyrrolidin-1-ylmethyl)-3H-imidazo[4,5-b]pyridin-5-yl)-1-oxoisoindolin-2-yl) piperidine-2,6-dione]	500 to 1000	> 10	< 20	< 1	20 to 40
Cn1ccc2c(CN3CC4CC4C3)cc(-c3ccc4c(c3)CN(C3CCC(=O)NC3=O)C4=O)nc21 (centres unmarked) [Example 66, 3-(5-(4-((3-azabicyclo[3.1.0]hexan-3-yl)methyl)-1-methyl-1H-pyrrolo[2,3-b]pyridin-6-yl)-1-oxoisoindolin-2-yl) piperidine-2,6-dione]	100 to 500	> 10	20 to 40	< 1	> 80
O=C1CCC(N2Cc3cc(-c4cc(CN5CCCC5)c5c(n4)CCC5)ccc3C2=O)C(=O)N1 (centres unmarked) [Example 80, 3-(1-oxo-5-(4-(pyrrolidin-1-ylmethyl)-6,7-dihydro-5H-cyclopenta[b]pyridin-2-yl)isoindolin-2-yl) piperidine-2,6-dione]	100 to 500	–	20 to 40	< 1	> 80
Cn1ccc2c(CN3CCCCC3)cc(-c3ccc4c(c3)CN(C3CCC(=O)NC3=O)C4=O)nc21 (centres unmarked) [Example 57, 3-(5-(1-methyl-4-(piperidin-1-ylmethyl)-1H-pyrrolo[2,3-b]pyridin-6-yl)-1-oxoisoindolin-2-yl) piperidine-2,6-dione]	100 to 500	> 10	20 to 40	< 1	> 80
O=C1CCC(N2Cc3cc(-c4cc(CN5CCCC5)c5ccccc5n4)ccc3C2=O)C(=O)N1 (centres unmarked) [Example 78, 3-(1-oxo-5-(4-(pyrrolidin-1-ylmethyl)quinolin-2-yl)isoindolin-2-yl) piperidine-2,6-dione]	500 to 1000	> 10	20 to 40	< 1	> 80
Cn1ccc2c(CN3CC4COCC4C3)cc(-c3ccc4c(c3)CN(C3CCC(=O)NC3=O)C4=O)nc21 (centres unmarked) [Example 63, 3-(5-(1-methyl-4-((tetrahydro-1H-furo[3,4-c]pyrrol-5 (3H)-yl)methyl)-1H-pyrrolo[2,3-b]pyridin-6-yl)-1-oxoisoindolin-2-yl) piperidine-2,6-dione]	100 to 500	> 10	20 to 40	< 1	> 80
Cn1ccc2c(CN3CC4(CCOCC4)C3)cc(-c3ccc4c(c3)CN(C3CCC(=O)NC3=O)C4=O)nc21 (centres unmarked) [Example 100, 3-(5-(4-((7-oxa-2-azaspiro[3.5]nonan-2-yl)methyl)-1-methyl-1H-pyrrolo[2,3-b]pyridin-6-yl)-1-oxoisoindolin-2-yl) piperidine-2,6-dione]	100 to 500	0.01 to 0.1	20 to 40	< 1	> 80
O=C1CCC(N2Cc3cc(-c4cc(CN5CCCC5)c5ccn(C6CCCC6)c5n4)ccc3C2=O)C(=O)N1 (centres unmarked) [Example 154, 3-(5-(1-cyclopentyl-4-(pyrrolidin-1-ylmethyl)-1H-pyrrolo[2,3-b]pyridin-6-yl)-1-oxoisoindolin-2-yl) piperidine-2,6-dione]	500 to 1000	> 10	< 20	1 to 10	60 to 80
Cn1ccc2c(C(=O)N3CCCC3)cc(-c3ccc4c(c3)CN(C3CCC(=O)NC3=O)C4=O)nc21 (centres unmarked) [Example 89, 3-(5-(1-methyl-4-(pyrrolidine-1-carbonyl)-1H-pyrrolo[2,3-b]pyridin-6-yl)-1-oxoisoindolin-2-yl) piperidine-2,6-dione]	500 to 1000	> 10	< 20	100 to 1000	20 to 40
